Columns and labels:
hFXR = target: T1, hFXR (Homo sapiens, UniProt Q96RI1); assay: Luciferase reporter assay, FXR antagonism in transfected HEK293T cells; format: cell-based; conditions: 100 µmol/L, in the presence of GW4064, HEK293T
T1 construct: expressed in transfected cells; host or cells: HEK293T
T1 sequence (Q96RI1 1-472 isoform Q96RI1-2): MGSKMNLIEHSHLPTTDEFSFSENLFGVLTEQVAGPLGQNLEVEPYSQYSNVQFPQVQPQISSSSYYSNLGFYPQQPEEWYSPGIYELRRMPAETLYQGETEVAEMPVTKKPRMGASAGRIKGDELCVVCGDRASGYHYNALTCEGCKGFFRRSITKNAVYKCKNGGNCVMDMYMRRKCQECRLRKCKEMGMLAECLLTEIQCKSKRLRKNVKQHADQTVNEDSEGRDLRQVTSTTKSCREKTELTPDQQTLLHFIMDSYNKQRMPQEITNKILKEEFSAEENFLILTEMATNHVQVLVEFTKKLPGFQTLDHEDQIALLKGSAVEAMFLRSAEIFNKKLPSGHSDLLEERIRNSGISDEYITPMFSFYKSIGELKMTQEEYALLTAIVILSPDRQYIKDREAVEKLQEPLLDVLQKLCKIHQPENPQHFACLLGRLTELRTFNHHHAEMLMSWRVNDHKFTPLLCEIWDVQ
Method: HEK293T cells were used for the luciferase report assays and were cultured in DMEM with 10% FBS. The cells were incubated in DMEM media with 1% FBS for 4–6 h and then exposed to the indicated concentrations of compounds for 24 h.
For the FXR antagonism experiment, HEK293T cells were seeded in 96-well plates and transfected with pCMV-Script-hFXR and pGL4.11-hSHP-luciferase at a density of 3 × 10^4 cells/well, before culturing overnight. The compounds at indicated concentrations were added to the cells and incubated at 37°C for 1 h, before stimulating with 1% DMSO (negative control) and 5 μmol/L GW4064 (positive control) for 24 h. For the FXR agonism experiment, HEK293T cells were seeded in 96-well plates and transfected with pCMV-Script-hFXR and pGL4.11-hSHP-luciferase at a density of 3 × 10^4 cells/well, before culturing overnight. Then compounds at indicated concentrations were added to the cells and incubated at 37°C for 24 h. […]
The luciferase activities and cell viabilities were detected by the FIREFLYGLO Luciferase Assay System and Cell Titer-Blue® Cell Viability Assay according to the manufacturer’s instructions. Firefly luciferase activities and cell viabilities were measured using Spectra Max M5e (Molecular Devices).

FXR-LBD = target: T2, FXR-LBD (Homo sapiens, UniProt Q96RI1); assay: Co-immunoprecipitation of BIOTIN-DC646 and purified FXR-LBD; format: binding; conditions: BIOTIN-DC646 50 μmol/L with purified FXR-LBD
T2 construct: 50 μmol/L Biotin-DC646 were incubated with 50 μmol/L purified FXR-LBD
T2 sequence (Q96RI1 262-486 limits assumed): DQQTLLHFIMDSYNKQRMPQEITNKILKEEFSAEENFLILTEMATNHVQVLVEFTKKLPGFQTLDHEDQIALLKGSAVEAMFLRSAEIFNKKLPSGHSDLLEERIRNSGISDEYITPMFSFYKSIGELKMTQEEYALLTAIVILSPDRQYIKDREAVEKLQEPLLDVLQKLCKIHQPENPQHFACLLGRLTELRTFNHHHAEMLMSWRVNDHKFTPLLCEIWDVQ
Method: For the co-immunoprecipitation of Biotin-DC646 and FXR-LBD, 50 μmol/L Biotin-DC646 were incubated with 50 μmol/L purified FXR-LBD at room temperature for 2 h at indicated conditions. These mixtures were then immunoprecipitated with beads which had been incubated with anti-His antibody (12698S, Cell Signaling Technology) at room temperature for 1 h. Immunoblotting was performed using the anti-BIOTIN antibody (sc-101339, Santa Cruz Biotechnology).

[1] = system: FXR signaling (Shp) in intestinal organoids; assay: FXR target gene expression in intestinal organoids; format: cell-based, mouse; conditions: DC646 50 μmol/L, GW4064 10 μmol/L, 24 h
Source text: (§1) Intestinal crypts were isolated from 6- to 8-week-old C57BL/6 mice and Fxr^△IE mice as previously described with minor revision. Briefly, the abdomen of the mouse was dissected, and the small intestine was isolated with fats removed. The isolated intestine was flushed with cold PBS to remove the luminal contents. Then, the intestine was opened longitudinally and washed three times with PBS gently. The tissue was cut into small fragments (2 mm^2) and further washed three times with cold PBS gently, followed by incubation with 5 mmol/L EDTA-PBS at 4°C. After 40 min, the fragments were vortexed vigorously, and then the suspension was filtered through a […] and centrifuged at 50 g for 10 min. The crypts were counted and plated with Matrigel (1:1, 25 μL) and 500 μL IntestiCult Organoid Growth Medium with Supplements 1 and 2. The isolated crypts were cultured for 3–5 days and treated with indicated chemicals as described.
The intestine and liver were frozen in liquid nitrogen and stored at −80°C. RNA was extracted, and complementary DNA was synthesized from 1 μg total RNA. RT-qPCR was performed on a Bio-Rad CFX384 Touch detection system (Bio-Rad). The primer sequences for RT-qPCR are shown in Supplementary Table S5. RNA levels were analyzed by 2-^ΔΔCt, normalized to 18S ribosomal RNA and expressed as fold change relative to the control group. […]

[2] = system: Pxr, Vdr and Nr1i3 target gene expression in organoids; assay: PXR, VDR and CAR downstream gene expression in organoids; format: cell-based, mouse; conditions: 24 h
Source text: as §1
The intestine and liver were frozen in liquid nitrogen and stored at −80°C. RNA was extracted, and complementary DNA was synthesized from 1 μg total RNA. RT-qPCR was performed on a Bio-Rad CFX384 Touch detection system (Bio-Rad). […] RNA levels were analyzed by 2-^ΔΔCt, normalized to 18S ribosomal RNA and expressed as fold change relative to the control group.
Supplementary Figure S7 Selectivity of DC646. […] Data are presented as the mean ± SEM and analyzed by unpaired t-test.

[3] = Water solubility (co-crystallisation attempts); format: physicochemical
Method: To explore the molecular mechanism underlying DC646-mediated FXR antagonism, we determined the structure of the DC646 by X-ray crystal analysis (Supplementary Fig. S5). We also made efforts to co-crystalize DC646 with hFXRα-LBD. […] As an alternative, the AlphaScreen assay was conducted to investigate the mechanism (Fig. 3a).

CC(C)C[C@@H]1NC(=O)[C@@H]2CN(CCO2)c2cccc3c2c(cn3[Si](C(C)C)(C(C)C)C(C)C)C[C@H](NS(=O)(=O)C(F)(F)F)C(=O)OCCCCNC(=O)[C@H](CC(C)C)NC(=O)[C@@H]2CN(CCO2)c2cccc3c2c(cn3[Si](C(C)C)(C(C)C)C(C)C)C[C@H](NS(=O)(=O)C(F)(F)F)C(=O)OCCCCNC1=O [DC646, N,N'-((1^2R,1^4S,16^2R,16^4S,4R,13R,19R,28R)-13,28-diisobutyl-5,12,15,20,27,30-hexaoxo-2^1,17^1-bis(triisopropylsilyl)-2^1H,17^1H-6,21-dioxa-11,14,26,29-tetraaza-1(4,2),16(2,4)-dimorpholina-2,17(4,3)-diindolacyclotriacontaphane-4,19-diyl)bis(1,1,1-trifluoromethanesulfonamide)]
Suppression of FXR activation (relative luciferase activity) (hFXR): more than 70%
Binding with FXR-LBD (co-immunoprecipitation) (FXR-LBD): directly bind
mRNA expression of GW4064-induced FXR target gene Shp ([1]; Fxr^△IE organoids): not observed
mRNA expression of GW4064-induced FXR target gene Shp ([1]; WT organoids): effectively reversed
Pxr, Vdr and Nr1i3 target gene expression [2]: no significant impact
Water solubility [3]: poor water solubility

— paper PMC11992618, “Development of cyclopeptide inhibitors specifically disrupting FXR–coactivator interaction in the intestine as a novel therapeutic strategy for MASH” (Life Metabolism, 2025)
